Measurements reported in ChEMBL document CHEMBL1126769, “Synthesis and kappa-opioid antagonist selectivity of a norbinaltorphimine congener. Identification of the address moiety required for kappa-antagonist activity” (J Med Chem, 1993).

Key:
[1] = molecular target: Opioid receptors; mu & kappa (Homo sapiens) (UniProt P41145+P35372); test: Selectivity ratio between kappa-opioid receptor to mu-opioid receptor; format: protein assay
[2] = molecular target: Opioid receptors; delta & kappa (Homo sapiens) (UniProt P41145+P41143); test: Selectivity ratio between kappa-opioid receptor to delta-opioid receptor; format: protein assay
[3] = molecular target: Delta-type opioid receptor (Mus musculus, UniProt P32300); test: Inhibitory activity against delta-opioid receptor in mouse vas deferens preparation using DADLE
[4] = molecular target: Kappa-type opioid receptor (Cavia porcellus, UniProt P41144); test: Inhibitory activity against kappa-opioid receptor in guinea pig ileum longitudinal muscle using ethylketazocine; format: tissue-based
Mu-type opioid receptor = Mu-type opioid receptor (Cavia porcellus, UniProt P97266); test: Inhibitory activity against mu-opioid receptor in guinea pig ileum longitudinal muscle using morphine; format: tissue-based
Sequence of Mu-type opioid receptor (P97266 whole entry): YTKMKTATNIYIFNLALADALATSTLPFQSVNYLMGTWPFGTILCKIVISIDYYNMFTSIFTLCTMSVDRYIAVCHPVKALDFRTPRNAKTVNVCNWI

Sequence of Opioid receptors; mu & kappa (Homo sapiens) (P35372 whole entry, looked up): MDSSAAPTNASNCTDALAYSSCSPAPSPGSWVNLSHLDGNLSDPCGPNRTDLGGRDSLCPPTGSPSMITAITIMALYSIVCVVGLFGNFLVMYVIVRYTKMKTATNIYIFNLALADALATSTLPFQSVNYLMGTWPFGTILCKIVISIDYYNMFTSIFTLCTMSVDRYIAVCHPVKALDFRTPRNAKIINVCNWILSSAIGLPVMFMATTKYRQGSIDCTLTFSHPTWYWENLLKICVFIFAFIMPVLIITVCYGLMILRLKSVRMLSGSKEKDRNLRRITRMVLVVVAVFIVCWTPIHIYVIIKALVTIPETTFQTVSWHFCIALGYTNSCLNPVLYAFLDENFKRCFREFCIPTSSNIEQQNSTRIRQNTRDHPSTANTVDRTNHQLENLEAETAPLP
Sequence of Opioid receptors; mu & kappa (Homo sapiens) (P41145 whole entry, looked up): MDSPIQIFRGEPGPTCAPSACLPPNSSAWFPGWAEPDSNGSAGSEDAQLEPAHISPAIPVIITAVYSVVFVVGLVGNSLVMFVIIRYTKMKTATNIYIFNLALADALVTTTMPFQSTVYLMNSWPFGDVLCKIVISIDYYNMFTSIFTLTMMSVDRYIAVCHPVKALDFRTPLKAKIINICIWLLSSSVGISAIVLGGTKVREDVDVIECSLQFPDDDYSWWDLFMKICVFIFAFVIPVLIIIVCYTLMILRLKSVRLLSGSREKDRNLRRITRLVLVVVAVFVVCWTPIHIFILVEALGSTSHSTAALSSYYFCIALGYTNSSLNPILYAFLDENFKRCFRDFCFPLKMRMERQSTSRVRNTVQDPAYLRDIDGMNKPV
Sequence of Opioid receptors; delta & kappa (Homo sapiens) (P41143 whole entry, looked up): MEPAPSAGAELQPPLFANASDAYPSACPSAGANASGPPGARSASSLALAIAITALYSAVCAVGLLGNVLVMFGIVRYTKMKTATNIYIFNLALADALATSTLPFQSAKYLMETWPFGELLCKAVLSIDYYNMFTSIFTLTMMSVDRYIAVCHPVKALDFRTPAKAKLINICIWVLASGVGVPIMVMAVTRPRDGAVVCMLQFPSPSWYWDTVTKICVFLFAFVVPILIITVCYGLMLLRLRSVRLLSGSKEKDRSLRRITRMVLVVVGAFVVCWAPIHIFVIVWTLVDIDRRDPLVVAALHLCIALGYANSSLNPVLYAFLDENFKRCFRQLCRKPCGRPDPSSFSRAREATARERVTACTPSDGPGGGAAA
Sequence of Opioid receptors; delta & kappa (Homo sapiens) (P41145 whole entry, looked up): as the sequence (P41145 whole entry, looked up) above
Sequence of Kappa-type opioid receptor (P41144 whole entry): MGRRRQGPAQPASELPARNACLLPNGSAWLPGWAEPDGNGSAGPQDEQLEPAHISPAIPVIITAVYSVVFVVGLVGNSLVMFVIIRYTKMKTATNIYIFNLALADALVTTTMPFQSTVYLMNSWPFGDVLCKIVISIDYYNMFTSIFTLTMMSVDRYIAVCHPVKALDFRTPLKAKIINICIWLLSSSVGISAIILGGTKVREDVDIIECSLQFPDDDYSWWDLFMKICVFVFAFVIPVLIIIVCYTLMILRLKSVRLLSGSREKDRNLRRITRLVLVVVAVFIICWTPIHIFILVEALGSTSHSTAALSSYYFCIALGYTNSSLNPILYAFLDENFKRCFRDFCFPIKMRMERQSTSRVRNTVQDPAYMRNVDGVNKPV
Sequence of Delta-type opioid receptor (P32300 whole entry): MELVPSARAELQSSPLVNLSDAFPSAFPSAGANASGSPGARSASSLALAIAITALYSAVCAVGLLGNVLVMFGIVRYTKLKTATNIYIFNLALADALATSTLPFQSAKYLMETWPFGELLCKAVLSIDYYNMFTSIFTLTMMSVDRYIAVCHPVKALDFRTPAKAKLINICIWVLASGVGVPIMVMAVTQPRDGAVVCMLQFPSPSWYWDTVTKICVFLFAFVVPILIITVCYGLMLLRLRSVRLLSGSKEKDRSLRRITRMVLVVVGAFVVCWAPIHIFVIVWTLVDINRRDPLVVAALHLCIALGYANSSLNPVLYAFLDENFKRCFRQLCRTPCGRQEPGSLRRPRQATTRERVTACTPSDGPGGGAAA

| SMILES | Ratio [1] | Ratio [2] | IC50 [3] [nM] | IC50 [4] [nM] | IC50 (Mu-type opioid receptor) [nM] |
| --- | --- | --- | --- | --- | --- |
| Cn1c2c(c3c1[C@@H]1Oc4c(O)ccc5c4[C@@]14CCN(CC1CC1)[C@H](C5)[C@]4(O)C3)C[C@H]1CN(C(=O)OCc3ccccc3)CC[C@@H]1C2 | 0.9 | 0.2 | 9.2 | 1.6 | 1.7 |
| Cn1c2c(c3c1[C@@H]1Oc4c(O)ccc5c4[C@@]14CCN(CC1CC1)[C@H](C5)[C@]4(O)C3)C[C@H]1CNCC[C@@H]1C2 | 40 | 36 | 1.1 | 40 | 1 |
| Oc1ccc2c3c1O[C@H]1c4[nH]c5c(c4C[C@@]4(O)[C@@H](C2)N(CC2CC2)CC[C@]314)C[C@@]1(O)[C@H]2Cc3ccc(O)c4c3[C@@]1(CCN2CC1CC1)[C@H]5O4 [NORBINALTORPHIMINE] | 22 | 17 |  | 181 | 8.3 |
